We go through 2 compounds from PMC12030277, “Is Copper-61 the New Gallium-68? Automation and Preclinical Proof-of-Concept of ^61Cu-Based Radiopharmaceuticals for Prostate Cancer Imaging” (Pharmaceuticals, 2025).

Data set [1] concerns LNCaP (PSMA-positive) cells. The data set is described as follows: In vitro uptake assay, LNCaP cells. As to conditions: 0.5 nM, 37 °C, up to 2 h, later time points; % of total radioactivity per well, gamma counter; mean ± SEM, N = 2–5 in duplicate. It is filed as cell-based, human. On the procedure:
(§1) The human PCa cell lines LNCaP (PSMA-positive) (American Type Culture Collection (ATCC), CRL-1740; Manassas, VA, USA) and DU145 (PSMA-negative) (kindly provided by Dr. Carmen Jerónimo Lab at IPO-Porto) were maintained at 37 °C in a humidified incubator enriched with 5% carbon dioxide. The cells were grown in Roswell Park Memorial Institute (RPMI) 1640 medium (Sigma-Aldrich, R4130; St. Louis, MI, USA) supplemented with 0.2% (w/v) sodium bicarbonate (Sigma-Aldrich, S6297), 10% heat-inactivated fetal bovine serum (FBS; Gibco, A5256801; Grand Island, NY, USA), 1 mM sodium pyruvate (Gibco, 11360-070), and 1% antibiotic-antimycotic (Anti-Anti 100X, Gibco, 15240-062). LNCaP and DU145 cells were seeded in 12-well plates (0.3 × 10^6 cells/well/mL) 48 h before the experiments and the day before, respectively. The multiwell plates used for the LNCaP cell line were previously coated with poly-l-lysine (PLL, Innoprot; Bizcaia, Spain) for 4–6 h to prevent cell detachment during the assays. Both PSMA-positive and -negative cells were incubated with 0.5 nM of ^61Cu-radiopharmaceuticals at 37 °C for different time periods up to 2 h. […] The radioactivity of both the supernatant and cellular fraction was measured in a CRC-55tW gamma-well counter (Mirion Technologies; Atlanta, GA, USA). Cellular uptake was calculated as a percentage of the total radioactivity measured for each well. […]

Data set [2] deals with DU145 (PSMA-negative) cells. Put plainly: In vitro uptake assay, DU145 cells. It is filed as cell-based, human. As to conditions: 0.5 nM, 37 °C, up to 2 h, N = 2–5 in duplicate. The method, then:
as §1

On the set-up of data set [3]: species or system mice. As to conditions: mouse.
For data set [4], the system named is PSMA-positive tumor xenografts (LNCaP). Set-up: species or system mice. As to conditions: mouse, in vivo. The method, then: Animal studies were approved by the Animal Welfare Committee of the Institute of Nuclear Sciences Applied to Health (ICNAS; ORBEA 01-2018) and the Portuguese National Authority for Animal Health (DGAV). Male athymic Swiss nude mice aged 9-12 weeks (34–36 g) were supplied by ICNAS, housed under pathogen-free conditions in individually ventilated cages with controlled temperature/humidity (22 °C/55%) environment on a 12 h light–dark cycle, and provided with food and water ad libitum. […] Tumor growth was monitored with a digital caliper and PET/MRI scans were performed when tumor xenografts reached 5–7 mm in diameter (~75–130 mm^3, as calculated by the formula Length × Width^2 × 0.5), approximately 9 weeks after inoculation.
[^61Cu]Cu-DOTAGA-PSMA-I&T (~0.37 MBq/g; ~3.56 nmol; N = 2) or [^61Cu]Cu-NODAGA-PSMA-I&T (~0.37 MBq/g; ~0.653 nmol; N = 3) in NaCl 0.9% with 10% EtOH was intravenously injected into the tail vein of anesthetized mice. […] Respiratory rate and body temperature were monitored throughout the imaging procedures (SA Instruments, Inc.; Stony Brook, NY, USA). […] For quantitative PET imaging processing, PMOD v3.6 and FUSION Tool (PMOD Technologies; Zürich, Switzerland; RRID:SCR_016547) were used to delineate volumes of interest (VOIs) on the PET images co-registered with the respective MRI. […] Uptake values were expressed as percentage of injected dose per gram of tissue (% ID/g).

As to `O=C(O)CC[C@H](NC(=O)N[C@@H](CCCCNC(=O)CCCCCCC(=O)NCCCC[C@@H](NC(=O)[C@@H](Cc1ccccc1)NC(=O)[C@@H](Cc1ccc(O)c(I)c1)NC(=O)CCC(C(=O)O)N1CCN(CC(=O)O)CCN(CC(=O)O)CC1)C(=O)O)C(=O)O)C(=O)O` (stereo partly shown) [[^61Cu]Cu-NODAGA-PSMA-I&T, metal not drawn], in data set [1], the “maximum cellular uptake in LNCaP cells” value was found to be 13.16 ± 0.15%. For the same compound, the “cellular uptake in DU145 cells” value in data set [2] is “remained at basal levels”. The in vivo stability entry in data set [3] is given as “remarkable in vivo metabolic stability”. Also, the clearance route result in data set [4] is on record as “clearance predominantly through the renal pathway”.

With [^61Cu]Cu-DOTAGA-PSMA-I&T, the “maximum cellular uptake in LNCaP cells” value in data set [1] is given as 14.09 ± 0.84%. For the same compound, the “cellular uptake in DU145 cells” value in data set [2] is reported as “remained at basal levels”. Besides, in data set [3], the in vivo stability result is listed as “poor kinetic stability in vivo”.
